Laboratory results published in patent publication US20020128256A1, “Methods for the treatment or prevention of inflammatory diseases characterized by abnormal cell proliferation” (priority 1997, published 2002).

What was measured:
ACHN = test: SRB antiproliferative assay, ACHN; format: cell-based; conditions: ACHN (Renal); 5% FCS, 5 Day Incubation; read-out: SRB assay IC50
Procedure: (§1) The antiproliferative assays described herein were performed using standard aseptic procedures and universal precautions for the use of tissues. Cells were propagated using RPMI 1640 media (Gibco) containing 2% N 5% fetal calf serum (Biowhittaker) at 37° C., 5% CO2 and 95% humidity. The cells were passaged using Trypsin (Gibco). Prior to addition of test compound, the cells were harvested, the cell number counted and seeded at 10,000 cells/well in 100 μl 5% fetal calf serum (FCS) containing RPMI medium in 96-well plates and incubated overnight at 37° C., 5% CO2 and 95% humidity.
(§2) Following incubation, the cellular protein was determined with the ulforhodamine B (SRB) assay (Skehan P et al., 1990, J. Natl. Cancer Inst. 82:1107-1112).

[1] = biological target: T1, Gardos channel of erythrocytes (Homo sapiens, UniProt O15554); test: Gardos Channel Assay; format: cell-based
T1 construct: endogenous in cells; host or cells: erythrocytes
T1 sequence (O15554 whole entry): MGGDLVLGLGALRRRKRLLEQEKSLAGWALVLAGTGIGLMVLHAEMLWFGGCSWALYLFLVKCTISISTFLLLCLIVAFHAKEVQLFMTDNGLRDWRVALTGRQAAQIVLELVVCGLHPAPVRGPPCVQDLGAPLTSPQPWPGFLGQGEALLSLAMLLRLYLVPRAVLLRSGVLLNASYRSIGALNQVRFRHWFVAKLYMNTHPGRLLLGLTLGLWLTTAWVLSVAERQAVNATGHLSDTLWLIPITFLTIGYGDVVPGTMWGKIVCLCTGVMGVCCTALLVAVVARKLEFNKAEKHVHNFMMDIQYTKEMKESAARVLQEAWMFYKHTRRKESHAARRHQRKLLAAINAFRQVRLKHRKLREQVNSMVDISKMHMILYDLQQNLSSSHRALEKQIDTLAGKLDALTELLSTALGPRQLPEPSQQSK

HeLa = test: SRB antiproliferative assay, HeLa; format: cell-based; conditions: HeLa (Cervical); 5% FCS, 5 Day Incubation; read-out: SRB assay IC50
Procedure: as §1, §2

MDA-MB-231 = test: SRB antiproliferative assay, MDA-MB-231; format: cell-based; conditions: MDA-MB-23 (Breast); 5% FCS, 5 Day Incubation; read-out: SRB assay IC50
SK-MEL-28 = test: SRB antiproliferative assay, SK-MEL-28; format: cell-based; conditions: SK-MEL-28 (Melanoma); 5% FCS, 5 Day Incubation; read-out: SRB assay IC50
Procedure: as §1, §2

MMRU = test: SRB antiproliferative assay, MMRU; format: cell-based, human; conditions: MMRU (Melanoma); 5% FCS, 5 Day Incubation; read-out: SRB assay IC50
Procedure: Cells were propagated using RPMI 1640 media (Gibco) containing 2% N 5% fetal calf serum (Biowhittaker) at 37° C., 5% CO2 and 95% humidity. The cells were passaged using Trypsin (Gibco). Prior to addition of test compound, the cells were harvested, the cell number counted and seeded at 10,000 cells/well in 100 μl 5% fetal calf serum (FCS) containing RPMI medium in 96-well plates and incubated overnight at 37° C., 5% CO2 and 95% humidity.
as §2

U118MG = test: SRB antiproliferative assay, U118MG; format: cell-based; conditions: U118MG (CNS); 5% FCS, 5 Day Incubation; read-out: SRB assay IC50
Procedure: as §1, §2

[2] = tested on: NIH 3T3 mouse fibroblast cells; test: Mitogenic Assay (mitogen-induced cell proliferation); format: cell-based
HUVEC = test: SRB assay, normal cells HUVEC; format: cell-based, human; conditions: HUVEC (Normal human); 5% FCS, 5 Day Incubation; read-out: SRB assay IC50
Procedure: as §1, §2

HTB174 = test: SRB antiproliferative assay, HTB174; format: cell-based; conditions: HTB174 (Lung); 5% FCS, 5 Day Incubation; read-out: SRB assay IC50
Procedure: as §1, §2

CaSki = test: SRB antiproliferative assay, CaSki; format: cell-based; conditions: CaSki (Cervical); 5% FCS, 5 Day Incubation; read-out: SRB assay IC50
Procedure: as §1, §2

DU-145 = test: SRB antiproliferative assay, DU-145; format: cell-based; conditions: DU-145 (Prostate); 5% FCS, 5 Day Incubation; read-out: SRB assay IC50
Procedure: as §1, §2

HCT-15 = test: SRB antiproliferative assay, HCT-15; format: cell-based; conditions: HCT-15 (Colon); 5% FCS, 5 Day Incubation; read-out: SRB assay IC50
Procedure: as §1, §2

L929 = test: SRB assay, normal cells L929; format: cell-based, mouse; conditions: L929 (Normal mouse); 5% FCS, 5 Day Incubation; read-out: SRB assay IC50
Procedure: as §1, §2

A549 = test: SRB antiproliferative assay, A549; format: cell-based; conditions: A549 (Lung); 5% FCS, 5 Day Incubation; read-out: SRB assay IC50
Procedure: as §1, §2

HEPG2 = test: SRB antiproliferative assay, HEPG2; format: cell-based; conditions: HEPG2 (Hepatocel); 5% FCS, 5 Day Incubation; read-out: SRB assay IC50
Procedure: as §1, §2

GM = test: SRB assay, normal cells GM; format: cell-based, human; conditions: GM (Normal human); 5% FCS, 5 Day Incubation; read-out: SRB assay IC50
Procedure: as §1, §2

MCF7 = test: SRB antiproliferative assay, MCF7; format: cell-based; conditions: MCF7 (Breast); 5% FCS, 5 Day Incubation; read-out: SRB assay IC50
Procedure: as §1, §2

3T3 = test: SRB assay, normal cells 3T3; format: cell-based, mouse; conditions: 3T3 (Normal mouse); 5% FCS, 5 Day Incubation; read-out: SRB assay IC50
Procedure: as §1, §2

HT29 = test: SRB antiproliferative assay, HT29; format: cell-based; conditions: HT29 (Colon); 5% FCS, 5 Day Incubation; read-out: SRB assay IC50
Procedure: as §1, §2

SK-OV-3 = test: SRB antiproliferative assay, SK-OV-3; format: cell-based; conditions: SK-OV-3 (Ovary); 5% FCS, 5 Day Incubation
Procedure: as §1, §2

[3] = tested on: MM-RU human melanoma cells; conditions: SCID mice, daily administration; cited from earlier work
Gardos channel [4] = biological target: T2, Gardos channel (Homo sapiens, UniProt O15554); design: host or cells: sickle erythrocytes (printed for Clotrimazole only); conditions: in vitro, sickle erythrocytes; cited from earlier work
T2 sequence (O15554 whole entry): as above

[5] = tested on: normal and cancer cell lines; conditions: cited from earlier work
red cell Gardos channel = biological target: T3, red cell Gardos channel (Mus musculus, UniProt O89109); conditions: oral administration; cited from earlier work
T3 construct: host or cells: red cells of SAD mouse
T3 sequence (O89109 whole entry): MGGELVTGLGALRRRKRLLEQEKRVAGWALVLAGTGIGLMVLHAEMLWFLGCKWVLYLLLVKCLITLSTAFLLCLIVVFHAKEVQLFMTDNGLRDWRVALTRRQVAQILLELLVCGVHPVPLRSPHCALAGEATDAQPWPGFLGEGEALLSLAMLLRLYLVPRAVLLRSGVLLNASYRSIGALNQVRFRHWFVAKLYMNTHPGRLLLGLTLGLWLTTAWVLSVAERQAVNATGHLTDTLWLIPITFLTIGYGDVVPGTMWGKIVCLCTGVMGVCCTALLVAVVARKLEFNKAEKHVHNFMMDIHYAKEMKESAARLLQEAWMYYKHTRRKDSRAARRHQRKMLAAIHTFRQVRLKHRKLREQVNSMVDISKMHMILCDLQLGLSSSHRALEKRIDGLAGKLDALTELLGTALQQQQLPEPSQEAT

Gardos channel [6] = biological target: T2, Gardos channel; design: reduces erythrocyte dehydration in patients with sickle cell disease; host or cells: erythrocytes of patients; conditions: oral therapy; cited from earlier work

With “6-Chloro-3,3-di(4′-chlorophenyl)-2-N-oxime-3,3-diphenylindane [Compound 11]” the IC50 (ACHN) was > 10 µM, the “Gardos Channel Assay Inhibition (%)” value ([1]; measured at 10 μM compound) was 50.0% and the IC50 (HeLa) was 5.1 µM. The IC50 (MDA-MB-231) was > 10 µM, the IC50 (SK-MEL-28) was 5.5 µM and the IC50 (MMRU) was 6.2 µM. For the same compound, the IC50 (U118MG) was > 10 µM, the IC50 ([2]; NIH 3T3 mouse fibroblast cells, mitogen-induced proliferation, read-out: Mitogenic Assay IC50) was 3.4 µM and the “Mitogenic Assay Inhibition (%)” value ([2]; measured at 10 μM compound, NIH 3T3 cells) was 99.0%. The IC50 (HUVEC) was 6.4 µM, the IC50 (HTB174) was 5.9 µM and the IC50 (CaSki) was 7 µM. For the same compound, the IC50 (DU-145) was > 10 µM, the IC50 (HCT-15) was 6.6 µM and the IC50 (L929) was 8.6 µM. For the same compound, the IC50 (A549) was 8.8 µM, the IC50 (HEPG2) was 5.8 µM and the IC50 (GM) was > 10 µM. For the same compound, the IC50 (MCF7) was 4.4 µM, the IC50 (3T3) was > 10 µM and the IC50 (HT29) was 6.8 µM. For the same compound, the IC50 (SK-OV-3) was > 10 µM.

In the case of `Clc1ccccc1C(c1ccccc1)(c1ccccc1)n1ccnc1` [Clotrimazole], the “Number of lung metastases” value [3] is given as “significant reduction in the number of lung metastases”, the inhibition at 10 µM ([1]; read-out: Gardos Channel Assay Inhibition (%)) is given as 99.3% and the “Ca2+-activated K+ transport and cell dehydration in sickle erythrocytes” value (Gardos channel [4]) is given as “blocks Ca^2+-activated K^+ transport and cell dehydration in sickle erythrocytes”. For the same compound, the “Rate of cell proliferation in vitro” value [5] was “inhibits the rate of cell proliferation of normal and cancer cell lines in a reversible and dose-dependent manner”, the inhibition at 10 µM ([2]; Mus musculus, NIH3T3, measured at 10 μM compound, NIH 3T3 cells, read-out: Mitogenic Assay Inhibition (%)) was 93% and the “Effect on red cells in SAD mouse” value (red cell Gardos channel) was “inhibition of the red cell Gardos channel, increased red cell K^+ content, a decreased mean cell hemoglobin concentration (MCHC) and decreased cell density”. For the same compound, the “Effect in patients with sickle cell disease” value (Gardos channel [6]) was “induces inhibition of the Gardos channel and reduces erythrocyte dehydration”.
